According to paper PMC4893628, “Chalcone-based Selective Inhibitors of a C4 Plant Key Enzyme as Novel Potential Herbicides” (Scientific Reports, 2016):
Like-named read-outs stand apart in the source and are kept apart here.

Assays:
F. trinervia PEPC = biological target: T1, F. trinervia PEPC (Flaveria trinervia, UniProt P30694); assay: biochemical; type: biochemical
T1 construct: the full-length ppcA gene of PEPC from F. trinervia (EMBL-Bank X61304); made in house; host or cells: Escherichia coli BL21(DE3)
T1 sequence (P30694 1-966): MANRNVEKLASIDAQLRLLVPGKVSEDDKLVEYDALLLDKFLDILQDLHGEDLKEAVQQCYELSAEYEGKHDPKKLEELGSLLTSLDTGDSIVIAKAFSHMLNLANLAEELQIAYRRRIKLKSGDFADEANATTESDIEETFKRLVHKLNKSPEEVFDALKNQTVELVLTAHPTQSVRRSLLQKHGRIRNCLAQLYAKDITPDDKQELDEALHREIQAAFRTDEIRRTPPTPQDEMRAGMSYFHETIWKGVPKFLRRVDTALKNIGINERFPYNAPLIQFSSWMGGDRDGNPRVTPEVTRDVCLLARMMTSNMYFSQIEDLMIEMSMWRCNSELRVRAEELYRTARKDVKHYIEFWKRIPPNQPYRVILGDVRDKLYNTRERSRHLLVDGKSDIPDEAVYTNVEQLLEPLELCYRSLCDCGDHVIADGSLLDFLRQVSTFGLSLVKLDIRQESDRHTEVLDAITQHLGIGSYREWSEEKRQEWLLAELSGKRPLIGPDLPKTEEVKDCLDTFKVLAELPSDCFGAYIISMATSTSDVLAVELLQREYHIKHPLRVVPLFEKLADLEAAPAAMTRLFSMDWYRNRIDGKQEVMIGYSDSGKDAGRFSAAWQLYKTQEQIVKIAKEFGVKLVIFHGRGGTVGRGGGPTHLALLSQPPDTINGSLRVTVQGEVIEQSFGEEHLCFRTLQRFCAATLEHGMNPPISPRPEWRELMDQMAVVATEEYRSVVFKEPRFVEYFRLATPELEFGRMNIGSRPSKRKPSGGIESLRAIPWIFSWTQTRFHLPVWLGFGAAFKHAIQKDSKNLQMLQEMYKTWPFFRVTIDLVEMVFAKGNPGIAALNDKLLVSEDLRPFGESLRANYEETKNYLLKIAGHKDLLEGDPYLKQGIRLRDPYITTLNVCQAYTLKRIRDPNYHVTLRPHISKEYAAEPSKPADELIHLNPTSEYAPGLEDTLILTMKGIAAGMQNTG
Description: The IC50 values of small molecule compounds on F. pringlei and F. trinervia PEPCs were determined using PEPC coupled spectrophotometric assay. The amount of NADH oxidized by NADH-malate dehydrogenase was measured by the decrease in absorbance at 340 nm in a Beckman DU-800 spectrophotometer, thus the value is in proportion to the corresponding substrate conversion of the enzyme. […] The reactions were started by adding two folds of the Km value of PEP for each enzyme. The data were analyzed using GraFit (Erithacus Software, UK).

[1] = system: Escherichia coli K-12 MG1655; assay: Bacterial growth in microscale cultivation, E. coli; type: cell-based; conditions: relative to control; for activity at 4 µM / activity at 40 µM / activity at 400 µM: Escherichia coli
Description: (§1) The following bacteria were cultivated in the presence of trans-chalcone derived inhibitors: Corynebacterium glutamicum ATCC13032[43], Escherichia coli K-12 MG1655[44], Pseudomonas putida KT2440[45], and Bacillus subtilis 168[46]. The growth of these bacteria was monitored in flower-well plates shaken at 1200 rpm as backscatter at 620 nm (gain 20) using a BioLector® microscale cultivation system (m2p labs, Baesweiler, Germany). For further experimental details please refer to the Supplementary Information.
(§2) medium or the appropriate minimal medium and shaken at 140 rpm overnight. For inoculation of
(§3) the main culture, cells equivalent to an optical density at 600 nm of 0.5 (C. glutamicum, E. coli,
(§4) and P. putida) or 0.25 (B. subtilis) in 800 µL medium were washed and resuspended in fresh
(§5) media. Inhibitor substances were dissolved in DMSO and added to the media to a final
(§6) Since the least polar trans-chalcone and 2’-hydroxychalcone precipitated in the growth media at
(§7) the highest concentrations, the maximal concentration of these compounds was reduced to 400
(§8) µM and 100 µM, respectively. The final backscatter at 620 nm, the growth rate (h-1), and the
(§9) duration of the lag phase of all cultures were determined in a BioLector microscale cultivation
(§10) system in comparison to negative controls supplemented with the solvent DMSO. A longer lag

[2] = system: Pseudomonas putida KT2440; assay: Bacterial growth in microscale cultivation, P. putida; type: cell-based; conditions: relative to control; for activity at 4 µM / activity at 40 µM / activity at 400 µM: Pseudomonas putida
Description: as §1, §2, §3, §4, §5, §6, §7, §8, §9, §10

Bacillus subtilis 168 = assay: Bacterial growth in microscale cultivation, B. subtilis; type: cell-based; conditions: relative to control
Description: as §1, §2, §3, §4, §5, §6, §7, §8, §9, §10

O=C(/C=C/c1ccc(O)cc1)c1ccccc1O [Compound 3, 2′,4-Dihydroxychalcone]
Selectivity C4/C3 (F. trinervia PEPC; C4 PEPC over C3 isoform): 1.6 fold
IC50 (F. trinervia PEPC; C4 PEPC, read-out: IC50 F. trinervia PEPC): 39.8 ± 4.2 µM
activity at 4 µM ([1]; MG1655, complex medium, 4 µM, read-out: Final Backscatter): 101%
activity at 4 µM ([1]; MG1655, complex medium, 4 µM, read-out: Growth rate): 88.3%
activity at 40 µM ([1]; MG1655, complex medium, 40 µM, read-out: Final Backscatter): 102%
activity at 40 µM ([1]; MG1655, complex medium, 40 µM, read-out: Growth rate): 95%
activity at 400 µM ([1]; MG1655, complex medium, 400 µM, read-out: Growth rate): 99.2%
activity at 4 µM ([1]; MG1655, minimal medium, 4 µM, read-out: Final Backscatter): 100%
activity at 4 µM ([1]; MG1655, minimal medium, 4 µM, read-out: Growth rate): 106%
activity at 40 µM ([1]; MG1655, minimal medium, 40 µM, read-out: Final Backscatter): 99.1%
activity at 40 µM ([1]; MG1655, minimal medium, 40 µM, read-out: Growth rate): 95.3%
activity at 400 µM ([1]; MG1655, minimal medium, 400 µM, read-out: Final Backscatter): 101%
activity at 400 µM ([1]; MG1655, minimal medium, 400 µM, read-out: Growth rate): 108%
Lag Phase ([1]; complex medium, 4 µM): 101,4%
Lag Phase ([1]; complex medium, 40 µM): 102,1%
Lag Phase ([1]; complex medium, 400 µM): 97,8%
Lag Phase ([1]; minimal medium, 4 µM): 99,3%
Lag Phase ([1]; minimal medium, 40 µM): 100,0%
Lag Phase ([1]; minimal medium, 400 µM): 98,6%
activity at 4 µM ([2]; KT2440, complex medium, 4 µM, read-out: Final Backscatter): 99.6%
activity at 4 µM ([2]; KT2440, complex medium, 4 µM, read-out: Growth rate): 103%
activity at 40 µM ([2]; KT2440, complex medium, 40 µM, read-out: Final Backscatter): 103%
activity at 40 µM ([2]; KT2440, complex medium, 40 µM, read-out: Growth rate): 106%
activity at 400 µM ([2]; KT2440, complex medium, 400 µM, read-out: Final Backscatter): 99.5%
activity at 400 µM ([2]; KT2440, complex medium, 400 µM, read-out: Growth rate): 108%
activity at 4 µM ([2]; KT2440, minimal medium, 4 µM, read-out: Final Backscatter): 97.4%
activity at 4 µM ([2]; KT2440, minimal medium, 4 µM, read-out: Growth rate): 95.3%
activity at 40 µM ([2]; KT2440, minimal medium, 40 µM, read-out: Final Backscatter): 101%
activity at 40 µM ([2]; KT2440, minimal medium, 40 µM, read-out: Growth rate): 97.1%
activity at 400 µM ([2]; KT2440, minimal medium, 400 µM, read-out: Final Backscatter): 110%
activity at 400 µM ([2]; KT2440, minimal medium, 400 µM, read-out: Growth rate): 106%
Lag Phase ([2]; complex medium, 4 µM): 97,7%
Lag Phase ([2]; complex medium, 40 µM): 98,5%
Lag Phase ([2]; complex medium, 400 µM): 98,5%
Lag Phase ([2]; minimal medium, 4 µM): 102,8%
Lag Phase ([2]; minimal medium, 40 µM): 101,6%
Lag Phase ([2]; minimal medium, 400 µM): 103,2%
activity at 4 µM (Bacillus subtilis 168; Bacillus subtilis, 168, complex medium, 4 µM, read-out: Final Backscatter): 95.2%
activity at 4 µM (Bacillus subtilis 168; Bacillus subtilis, 168, complex medium, 4 µM, read-out: Growth rate): 99.5%
activity at 40 µM (Bacillus subtilis 168; Bacillus subtilis, 168, complex medium, 40 µM, read-out: Final Backscatter): 97.1%
activity at 40 µM (Bacillus subtilis 168; Bacillus subtilis, 168, complex medium, 40 µM, read-out: Growth rate): 108%
activity at 120 µM (Bacillus subtilis 168; Bacillus subtilis, 168, complex medium, 120 µM, read-out: Final Backscatter): 102%
activity at 120 µM (Bacillus subtilis 168; Bacillus subtilis, 168, complex medium, 120 µM, read-out: Growth rate): 114%
activity at 400 µM (Bacillus subtilis 168; Bacillus subtilis, 168, complex medium, 400 µM, read-out: Final Backscatter): 91.6%
activity at 400 µM (Bacillus subtilis 168; Bacillus subtilis, 168, complex medium, 400 µM, read-out: Growth rate): 92.8%
activity at 4 µM (Bacillus subtilis 168; Bacillus subtilis, 168, minimal medium, 4 µM, read-out: Final Backscatter): 101%
activity at 4 µM (Bacillus subtilis 168; Bacillus subtilis, 168, minimal medium, 4 µM, read-out: Growth rate): 130%
activity at 40 µM (Bacillus subtilis 168; Bacillus subtilis, 168, minimal medium, 40 µM, read-out: Final Backscatter): 99.1%
activity at 40 µM (Bacillus subtilis 168; Bacillus subtilis, 168, minimal medium, 40 µM, read-out: Growth rate): 119%
activity at 120 µM (Bacillus subtilis 168; Bacillus subtilis, 168, minimal medium, 120 µM, read-out: Final Backscatter): 100%
activity at 120 µM (Bacillus subtilis 168; Bacillus subtilis, 168, minimal medium, 120 µM, read-out: Growth rate): 115%
activity at 400 µM (Bacillus subtilis 168; Bacillus subtilis, 168, minimal medium, 400 µM, read-out: Final Backscatter): 102%
activity at 400 µM (Bacillus subtilis 168; Bacillus subtilis, 168, minimal medium, 400 µM, read-out: Growth rate): 113%
Lag Phase (Bacillus subtilis 168; complex medium, 4 µM): 105,7%
Lag Phase (Bacillus subtilis 168; complex medium, 40 µM): 105,7%
Lag Phase (Bacillus subtilis 168; complex medium, 120 µM): 125,5%
Lag Phase (Bacillus subtilis 168; complex medium, 400 µM): 151,3%
Lag Phase (Bacillus subtilis 168; minimal medium, 4 µM): 99,0%
Lag Phase (Bacillus subtilis 168; minimal medium, 40 µM): 101,0%
Lag Phase (Bacillus subtilis 168; minimal medium, 120 µM): 111,3%
Lag Phase (Bacillus subtilis 168; minimal medium, 400 µM): 151,4%
